# From publication PMC6001238, “Iterative Chemical Engineering of Vancomycin Leads to Novel Vancomycin Analogs With a High in Vitro Therapeutic Index” (Frontiers in Microbiology, 2018)
# Key:
# [1] = system: S. aureus VSSA (ATCC 6538); experiment: MIC, broth microdilution, vancomycin-sensitive S. aureus (VSSA/MSSA, ATCC 6538); type: cell-based, Staphylococcus aureus; settings: for MIC: Staphylococcus aureus VSSA, read-out: MIC; for MIC-fold improvement vs. vancomycin: VSSA, ratio of MIC of vancomycin and MIC of analogue
# Method in brief: (§1)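 Susceptibility was scored by broth microdilution (CLSI). In one instance each vancomycin analog or control antibiotic was tested in the presence of vancomycin, 10 μM final, and ultrapure water plus non-inoculated broth were included as controls.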
# [2] = system: Murine leukemia (L1210) cells; experiment: Cytostatic activity, L1210 cell proliferation; type: cell-based; settings: mean ± SD of three experiments; highest concentration tested 250 µM; 2 days; read-out: Toxicity (IC50) L1210
# Method in brief: (§2)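 Suspensions (300,000–500,000 cells/mL) combined with equal volumes of diluted compound; 37°C; L1210 2 d / CEM 3 d / HeLa 4 d; counted by Coulter counter; IC50 vs untreated wells.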
# [3] = system: E. faecalis VRE 37; experiment: MIC, broth microdilution, vancomycin-resistant E. faecalis VRE 37 (VanA); type: cell-based, Enterococcus faecalis; settings: for MIC: Enterococcus faecalis VRE 37 (vancomycin-resistant), read-out: MIC
# Method in brief: as §1
# [4] = system: MRSA KS6; experiment: MIC, broth microdilution, MRSA KS6; type: cell-based, Staphylococcus aureus; settings: for MIC-fold improvement vs. vancomycin: MRSA KS6, ratio of MIC of vancomycin and MIC of analogue; for MIC: Staphylococcus aureus MRSA KS6, read-out: MIC
# Method in brief: as §1
# [5] = system: Clostridium difficile AIU ribotype 027; experiment: MIC, plate drop assay, C. difficile AIU ribotype 027; type: cell-based; settings: C. difficile AIU ribotype 027
# Experimental: (§3) Bacterial lawns of both C. difficile strains were prepared by adding 0.5 mL overnight culture to 8 mL sloppy BHI agar (0.4% agar) supplemented with 1.5 g/L CaCl2⋅2H2O and 81.2 g/L MgCl2⋅6H2O, and pouring the mixture into Petri plates. A twofold dilution series of the selected vancomycin analogs, vancomycin ([…]) and daptomycin (25 μM) was spotted (10 μL) on the bacterial lawn. Spots were air-dried and the plates were incubated overnight at 37°C in an anaerobic cabinet. Ultrapure water was included as negative control. The assay was performed in triplicate. Inhibition was observed by cleared spots.
# [6] = system: E. faecalis VRE 53; experiment: MIC, broth microdilution, vancomycin-resistant E. faecalis VRE 53 (VanA); type: cell-based, Enterococcus faecalis; settings: for MIC: Enterococcus faecalis VRE 53 (vancomycin-resistant), read-out: MIC; for MIC-fold improvement vs. vancomycin: VRE 53, ratio of MIC of vancomycin and MIC of analogue
# Method in brief: as §1
# [7] = system: MRSA KS89; experiment: MIC, broth microdilution, MRSA KS89; type: cell-based, Staphylococcus aureus; settings: for MIC-fold improvement vs. vancomycin: MRSA KS8, ratio of MIC of vancomycin and MIC of analogue; for MIC: Staphylococcus aureus MRSA KS8, read-out: MIC
# Method in brief: as §1
# [8] = system: MRSA KS2; experiment: MIC, broth microdilution, MRSA KS2; type: cell-based, Staphylococcus aureus; settings: for MIC-fold improvement vs. vancomycin: MRSA KS2, ratio of MIC of vancomycin and MIC of analogue; for MIC: Staphylococcus aureus MRSA KS2, read-out: MIC
# Method in brief: as §1
# [9] = system: human T-lymphocyte (CEM) cells; experiment: Cytostatic activity, CEM cell proliferation; type: cell-based; settings: mean ± SD of three experiments; highest concentration tested 250 µM; 3 days; read-out: Toxicity (IC50) CEM
# Method in brief: as §2
# [10] = system: human cervix carcinoma (HeLa) cells; experiment: Cytostatic activity, HeLa cell proliferation; type: cell-based; settings: mean ± SD of three experiments; highest concentration tested 250 µM; 4 days; read-out: Toxicity (IC50) HeLa
# Method in brief: as §2
# [11] = system: E. faecalis VRE 6; experiment: MIC, broth microdilution, vancomycin-resistant E. faecalis VRE 6 (VanA); type: cell-based, Enterococcus faecalis; settings: for MIC: Enterococcus faecalis VRE 6 (vancomycin-resistant), read-out: MIC; for MIC-fold improvement vs. vancomycin: VRE 6, ratio of MIC of vancomycin and MIC of analogue
# Method in brief: as §1
# [12] = system: E. faecalis VSE 1; experiment: MIC, broth microdilution, vancomycin-sensitive E. faecalis (VSE 1); type: cell-based, Enterococcus faecalis; settings: for MIC: Enterococcus faecalis VSE 1 (vancomycin-sensitive), read-out: MIC; for MIC-fold improvement vs. vancomycin: VSE 1, ratio of MIC of vancomycin and MIC of analogue
# Method in brief: as §1
# [13] = system: MRSA KS1; experiment: MIC, broth microdilution, MRSA KS1; type: cell-based, Staphylococcus aureus; settings: for MIC-fold improvement vs. vancomycin: MRSA KS1, ratio of MIC of vancomycin and MIC of analogue; for MIC: Staphylococcus aureus MRSA KS1, read-out: MIC
# Method in brief: as §1
# [14] = system: Clostridium difficile ATJ ribotype 014/20; experiment: MIC, plate drop assay, C. difficile ATJ ribotype 014/20; type: cell-based; settings: for MIC-fold improvement vs. vancomycin: C. difficile ATJ ribotype 014/20
# Experimental: as §3
# [15] = system: S. aureus VISA/HIP5827; experiment: MIC, broth microdilution, vancomycin-intermediate S. aureus VISA HIP5827; type: cell-based, Staphylococcus aureus; settings: for MIC: Staphylococcus aureus VISA/HIP5827, read-out: MIC; for MIC-fold improvement vs. vancomycin: VISA/HIP5827, ratio of MIC of vancomycin and MIC of analogue
# Method in brief: as §1
# [16] = system: S. aureus VRSA; experiment: MIC, broth microdilution, vancomycin-resistant S. aureus (VRSA); type: cell-based, Staphylococcus aureus; settings: for MIC: Staphylococcus aureus VRSA, read-out: MIC; for MIC-fold improvement vs. vancomycin: VRSA, ratio of MIC of vancomycin and MIC of analogue
# Method in brief: as §1
# [17] = system: E. faecalis VRE 29; experiment: MIC, broth microdilution, vancomycin-resistant E. faecalis VRE 29 (VanA); type: cell-based, Enterococcus faecalis; settings: for MIC: Enterococcus faecalis VRE 29 (vancomycin-resistant), read-out: MIC
# Method in brief: as §1
# [18] = system: L1210, CEM and HeLa cell lines; experiment: Cytostatic activity, average or summary over L1210, CEM and HeLa; type: cell-based; settings: average of L1210, CEM and HeLa; read-out: Toxicity (IC50) Average
# Method in brief: as §2
smiles,measurement,setting,value
CNC(CC(C)C)C(=O)NC1C(=O)NC(CC(N)=O)C(=O)NC2C(=O)NC3C(=O)NC(C(=O)NC(C(=O)NCCNC(=O)C=Cc4ccccc4)c4cc(O)cc(O)c4-c4cc3ccc4O)C(O)c3ccc(c(Cl)c3)Oc3cc2cc(c3OC2OC(CO)C(O)C(O)C2OC2CC(C)(N)C(O)C(C)O2)Oc2ccc(cc2Cl)C1O (centres unmarked) [Vanc-21],MIC,[1],0.78 µM
same,MIC-fold improvement vs. vancomycin,[1],1
same,IC50,[2],> 250 µM
same,MIC,[3],12.5 µM
same,MIC-fold improvement vs. vancomycin,[4],1
same,MIC,[4],0.78 µM
same,MIC-fold improvement vs. vancomycin,[5],4
same,MIC,[6],12.5 µM
same,MIC-fold improvement vs. vancomycin,[6],32
same,MIC-fold improvement vs. vancomycin,[7],1
same,MIC,[7],0.78 µM
same,MIC-fold improvement vs. vancomycin,[8],2
same,MIC,[8],0.39 µM
same,IC50,[9],> 250 µM
same,IC50,[10],> 250 µM
same,MIC,[11],1.56 µM
same,MIC-fold improvement vs. vancomycin,[11],128
same,MIC,[12],0.39 µM
same,MIC-fold improvement vs. vancomycin,[12],4
same,MIC-fold improvement vs. vancomycin,[13],1
same,MIC,[13],0.78 µM
same,MIC-fold improvement vs. vancomycin,[14],<1.4
same,MIC,"[14]; C. difficile ATJ ribotype 014/20, plate drop assay",>25 µM
same,MIC,[15],0.78 µM
same,MIC-fold improvement vs. vancomycin,[15],8
same,MIC,[16],1.56 µM
same,MIC-fold improvement vs. vancomycin,[16],64
same,MIC,[17],12.5 µM
same,MIC-fold improvement vs. vancomycin,"[17]; VRE 29, ratio of MIC of vancomycin and MIC of analogue",32
same,IC50,[18],> 250 µM
CN[C@H](CC(C)C)C(=O)N[C@H]1C(=O)N[C@@H](CC(N)=O)C(=O)N[C@H]2C(=O)N[C@H]3C(=O)N[C@H](C(=O)N[C@H](C(=O)NCC(=O)Nc4ccc(Cl)cc4Cl)c4cc(O)cc(O)c4-c4cc3ccc4O)[C@H](O)c3ccc(c(Cl)c3)Oc3cc2cc(c3O[C@@H]2O[C@H](CO)[C@@H](O)[C@H](O)[C@H]2O[C@H]2C[C@](C)(N)[C@H](O)[C@H](C)O2)Oc2ccc(cc2Cl)[C@H]1O [Vanc-14],MIC,[1],0.20 µM
same,MIC-fold improvement vs. vancomycin,[1],4
same,IC50,[2],153 ± 55 µM
same,MIC,[3],6.25 µM
same,MIC-fold improvement vs. vancomycin,"[3]; VRE 37, ratio of MIC of vancomycin and MIC of analogue",128
same,MIC-fold improvement vs. vancomycin,[4],2
same,MIC,[4],0.39 µM
same,MIC-fold improvement vs. vancomycin,[5],29
same,MIC,[6],3.13 µM
same,MIC-fold improvement vs. vancomycin,[6],128
same,MIC-fold improvement vs. vancomycin,[7],4
same,MIC,[7],0.20 µM
same,MIC-fold improvement vs. vancomycin,[8],4
same,MIC,[8],0.20 µM
same,IC50,[9],114 ± 18 µM
same,IC50,[10],148 ± 6 µM
same,MIC,[11],1.56 µM
same,MIC-fold improvement vs. vancomycin,[11],128
same,MIC,[12],0.20 µM
same,MIC-fold improvement vs. vancomycin,[12],8
same,MIC-fold improvement vs. vancomycin,[13],2
same,MIC,[13],0.39 µM
same,MIC-fold improvement vs. vancomycin,[14],22
same,MIC,[15],0.10 µM
same,MIC-fold improvement vs. vancomycin,[15],64
same,MIC,[16],3.13 µM
same,MIC-fold improvement vs. vancomycin,[16],32
same,MIC,[17],3.13 µM
same,IC50,[18],138 µM
